From patent EP3494999A1, “PSMA LIGANDS FOR IMAGING AND ENDORADIOTHERAPY” (Technische Universität München, priority 2017, dated 2019)
Square brackets hold non-standard residues; d marks the D form. Peptide text beside a SMILES is read from it. * marks the point of attachment. X1 = O=C(O)CC[C@H](NC(=O)N[C@@H](CCCCNC(=O)CCCCCCC(=O)*)C(=O)O)C(=O)O; DOTAGA = O=C(O)CN1CCN(CC(=O)O)CCN(C(CCC(=O)*)C(=O)O)CCN(CC(=O)O)CC1; dPhe(4-NH2) = Nc1ccc(C[C@@H](N)C(=O)O)cc1; dTyr(3-I) = N[C@H](Cc1ccc(O)c(I)c1)C(=O)O; Phe(4-NH2) = Nc1ccc(C[C@H](N)C(=O)O)cc1; d2Nal = N[C@H](Cc1ccc2ccccc2c1)C(=O)O

Assays:
PSMA [1] = target: T1, PSMA (Homo sapiens, UniProt Q04609); assay: Determination of IC50: competitive binding against ([125I]I-BA)KuE on cells; set-up: endogenous in cells; LNCaP is named only for the xenografts; conditions: for IC50: natLu complexes, displacement of ([125I]I-BA)KuE, 60 min on ice, HBSS (1% BSA)
T1 sequence (Q04609 whole entry): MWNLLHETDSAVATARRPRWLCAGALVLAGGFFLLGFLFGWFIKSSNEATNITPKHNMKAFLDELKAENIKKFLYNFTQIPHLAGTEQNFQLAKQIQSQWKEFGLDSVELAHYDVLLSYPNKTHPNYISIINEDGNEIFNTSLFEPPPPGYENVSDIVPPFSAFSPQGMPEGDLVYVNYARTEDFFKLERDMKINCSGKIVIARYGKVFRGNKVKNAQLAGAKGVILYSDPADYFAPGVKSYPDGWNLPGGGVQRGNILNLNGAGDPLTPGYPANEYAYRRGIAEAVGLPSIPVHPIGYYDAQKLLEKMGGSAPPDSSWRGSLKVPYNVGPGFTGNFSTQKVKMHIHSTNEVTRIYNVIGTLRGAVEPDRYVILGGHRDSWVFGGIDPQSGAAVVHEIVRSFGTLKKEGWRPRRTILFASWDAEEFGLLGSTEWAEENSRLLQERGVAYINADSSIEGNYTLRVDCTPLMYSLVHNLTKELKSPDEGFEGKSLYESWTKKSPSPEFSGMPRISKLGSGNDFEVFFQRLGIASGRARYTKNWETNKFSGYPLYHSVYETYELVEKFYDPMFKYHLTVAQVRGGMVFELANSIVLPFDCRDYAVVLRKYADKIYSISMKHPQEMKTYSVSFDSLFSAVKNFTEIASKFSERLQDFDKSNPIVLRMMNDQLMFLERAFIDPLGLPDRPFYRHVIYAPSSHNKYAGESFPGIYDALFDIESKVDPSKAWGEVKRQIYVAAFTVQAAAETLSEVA
Procedure: The corresponding ^natLu^III-complexes were prepared from a 2 mM aqueous solution of the PSMA inhibitor with a 2.5 molar excess of LuCl3 (20 mM solution), heated to 95 °C for 30 min. After cooling, the ^natLu^III-chelate formation was confirmed using HPLC and MS. […] Calculated monoisotopic mass (C67H92N11O23 Lu) = 1,593.6 found: m/z = 1,595.0 [M+H]^+, 798.2 [M+2H]^2+. [^natLu]DOTAGA-(4-NH2)f-y-nal-k-KuE ([^natLu]PSMA-5): HPLC (10 to 60% B in 15 min.): tR = 9.0 min K' = 3.5. Calculated monoisotopic mass (C76H102N13O24 Lu) = 1,755.7 found: m/z = 1,756.4 [M+H]^+, 879.0 [M+2H]^2+. [^natLu]DOTAGA-(4-NH2)F-y-nal-k-KuE ([^natLu]PSMA-6): HPLC (10 to 60% B in 15 min.): tR = 9.1 min K' = 3.6. Calculated monoisotopic mass (C76H102N13O24 Lu) = 1,755.7 found: m/z = 1,756.6 [M+H]^+, 878.8 [M+2H]^2+. [^natLu]DOTAGA-y-nal-k(Suc-(HO-δ-orn-γ-EuE))-OH ([^natLu]PSMA-7): HPLC (10 to 60 % B in 15 min): tR = 7.8 min K' = 2.9. Calculated monoisotopic mass (C67H89N12O26 Lu): 1,652.5 found: m/z = 1,653.9 [M+H]^+. [^natLu]DOTAGA-(4-NH2)f-y-nal-k(Suc-(HO-δ-orn-γ-EuE))-OH ([^natLu]PSMA-8): HPLC (10 to 60 % B in 15 min): tR = 7.3 min K' = 2.7. Calculated monoisotopic mass (C67H99N14O27Lu): 1,814.6 found: m/z = 1,815.9 [M+H]^+, 908.3 [M+2H]^2+. [^natLu]DOTAGA-(4-NH2)F-y-nal-k(Suc-(HO-δ-orn-γ-EuE))-OH ([^natLu]PSMA-9): HPLC (10 to 60 % B in 15 min): tR = 7.2 min K' = 2.6. Calculated monoisotopic mass (C67H99N14O27Lu): 1,814.6 found: m/z = 1,815.6 [M+H]^+, 908.3 [M+2H]^2+. [^natLu]DOTAGA-y-nal-k(Glut-(l-f)-KuE) ([^natLu]PSMA-10): HPLC (25 to 55% B in 15 min): tR = 10.6 min K' = 4.9. Calculated monoisotopic mass (C73H94IN12O24Lu): 1,825.5 found: m/z = 1,826.5 [M+H]^+, 913.8 [M+2H]^2+. [^natLu]DOTAGA-(4-NH2)f-y-nal-k(Glut-(l-f)-KuE) ([^natLu]PSMA-11): HPLC (10 to 60% B in 20 min): tR = 9.7 min K' = 3.9. Calculated monoisotopic mass (C82H104IN14O25Lu): 1,986.6 found: m/z = 1,987.5 [M+H]^+, 994.3 [M+2H]^2+.
The reaction solution was incubated for 10 min at RT, loaded on a cartridge and rinsed with 10 mL water (C18 Sep Pak Plus cartridge, preconditioned with 10 mL MeOH and 10 mL water). After elution with 2.0 mL of a 1:1 mix (v/v) of EtOH/MeCN, the radioactive solution was evaporated to dryness under a gentle nitrogen stream and treated with 200 µL TFA for 30 min with subsequent evaporation of TFA.
After removal of the culture medium, the cells were treated once with 500 µL of HBSS (Hank's balanced salt solution, Biochrom, Berlin, Germany, with addition of 1% bovine serum albumin (BSA)) and left 15 min on ice for equilibration in 200 µL HBSS (1% BSA). […] All experiments were performed at least three times for each concentration. After 60 min incubation on ice, the experiment was terminated by removal of the medium and consecutive rinsing with 200 µL of HBSS. The media of both steps were combined in one fraction and represent the amount of free radioligand. Afterwards, the cells were lysed with 250 µL of 1.0 M NaOH and united with the 200 µL HBSS of the following wash step. Quantification of bound and free radioligand was accomplished in a γ-counter.

PSMA [2] = target: T1, PSMA; assay: Internalization of radiolabeled PSMA inhibitors into cells (PMPA blockade); format: cell-based; set-up: endogenous in cells; LNCaP is named only for the xenografts; conditions: 177Lu-labeled inhibitors, 37°C; reference basis of the % not stated
Procedure: The ^177Lu-labeled compounds, for in vitro studies, were prepared as previously described (Sosabowski, J.K. and S.J. Mather, Conjugation of DOTA-like chelating agents to peptides and radiolabeling with trivalent metallic isotopes. Nat. Protocols, 2006. 1(2): p. 972-976) with minor modifications and used without further purification. In short, to a reaction volume of 10 µL 1.0 M NH4OAc buffer pH = 5.9 was added 0.75 to 1.0 nmol tracer (7.5 to 10 µL), 10 to 40 MBq ^177LuCl3 (Specific Activity (AS) > 3000 GBq/mg, 740 MBq/mL, 0.04 M HCl, ITG, Garching, Germany) and finally filled up to 100 µL with trace-pure Water (Merck, Darmstadt, Germany). The reaction mixture was heated for 30 min at 95°C and the radiochemical purity was determined using Radio-TLC.
[…] Each well was treated with either 25 µL of either DMEM-F12 (5% BSA) or a 100 µM PMPA solution for blockade. Next, 25 µL of the respective ^68Ga-and ^177Lu-labeled PSMA inhibitors (2.0 nM / 5.0 nM) was added and the cells incubated at 37°C for 5, 15, 30 and 60 min, respectively. The experiment was terminated by placing the 24-well plate on ice for 3 min and consecutive removal of the medium. Each well was rinsed with 250 µL HBSS and the fractions from these first two steps combined, representing the amount of free radioligand. Removal of surface bound activity was accomplished by incubation of the cells with 250 µL of ice-cold PMPA (10 µM in PBS) solution for 5 min and rinsed again with another 250 µL of ice-cold PBS. The internalized activity was determined by incubation of the cells in 250 µL 1.0 M NaOH and the combination with the fraction of a subsequent wash step with 250 µL 1.0 M NaOH. Each experiment (control and blockade) was performed in triplicate for each time point. Free, surface bound and internalized activity was quantified in a γ-counter.

| SMILES | IC50 (PSMA [1]) [nM] | Internalization [%] (PSMA [2]) | affinity, fold higher than [Lu]PSMA DKFZ 617 (PSMA [1]; relative to [Lu]PSMA DKFZ 617) | affinity, fold higher than [Lu]PSMA I&T (PSMA [1]; relative to [Lu]PSMA I&T) |
| --- | --- | --- | --- | --- |
| Nc1ccc(C[C@@H](NC(=O)CCC(C(=O)O)N2CCN(CC(=O)O)CCN(CC(=O)O)CCN(CC(=O)O)CC2)C(=O)N[C@H](Cc2ccc(O)c(I)c2)C(=O)N[C@H](Cc2ccccc2)C(=O)N[C@H](CCCCNC(=O)CCCCCCC(=O)NCCCC[C@H](NC(=O)N[C@@H](CCC(=O)O)C(=O)O)C(=O)O)C(=O)O)cc1 (stereo partly drawn) [[^nat/177Lu]PSMA-2, DOTAGA-(4-NH2)f-(l-y)-f-k-KuE, metal not drawn] ({DOTAGA}-[dPhe(4-NH2)][dTyr(3-I)][dF][dK](X1)-OH) | 2.3 ± 0.6 | 122.15 ± 1.3 |  |  |
| Nc1ccc(C[C@H](NC(=O)CCC(C(=O)O)N2CCN(CC(=O)O)CCN(CC(=O)O)CCN(CC(=O)O)CC2)C(=O)N[C@H](Cc2ccc(O)c(I)c2)C(=O)N[C@H](Cc2ccccc2)C(=O)N[C@H](CCCCNC(=O)CCCCCCC(=O)NCCCC[C@H](NC(=O)N[C@@H](CCC(=O)O)C(=O)O)C(=O)O)C(=O)O)cc1 (stereo partly drawn) [[^nat/177Lu]PSMA-3, DOTAGA-(4-NH2)F-(l-y)-f-k-KuE, metal not drawn] ({DOTAGA}-[Phe(4-NH2)][dTyr(3-I)][dF][dK](X1)-OH) | 2.8 ± 0.3 | 166.92 ± 2.4 |  |  |
| O=C(O)CC[C@H](NC(=O)N[C@@H](CCCCNC(=O)CCCCCCC(=O)NCCCC[C@@H](NC(=O)[C@@H](Cc1ccc2ccccc2c1)NC(=O)[C@@H](Cc1ccc(O)cc1)NC(=O)CCC(C(=O)O)N1CCN(CC(=O)O)CCN(CC(=O)O)CCN(CC(=O)O)CC1)C(=O)O)C(=O)O)C(=O)O (stereo partly drawn) [[^nat/177Lu]PSMA-4, DOTAGA-y-nal-k-KuE, metal not drawn, reference compound] | 2.1 ± 0.8 | 71.7 ± 0.7 |  |  |
| Nc1ccc(C[C@H](NC(=O)CCC(C(=O)O)N2CCN(CC(=O)O)CCN(CC(=O)O)CCN(CC(=O)O)CC2)C(=O)N[C@H](Cc2ccc(O)cc2)C(=O)N[C@H](Cc2ccc3ccccc3c2)C(=O)N[C@H](CCCCNC(=O)CCCCCCC(=O)NCCCC[C@H](NC(=O)N[C@@H](CCC(=O)O)C(=O)O)C(=O)O)C(=O)O)cc1 (stereo partly drawn) [[^nat/177Lu]PSMA-6, DOTAGA-(4-NH2)F-y-nal-k-KuE, metal not drawn] ({DOTAGA}-[Phe(4-NH2)][dY][d2Nal][dK](X1)-OH) | 1.1 ± 0.1 | 108.8 ± 2.5 | more than 3 fold | around 7 fold |
| O=C(O)CC[C@H](NC(=O)N[C@@H](CCCCNC(=O)[C@@H](Cc1ccc(I)cc1)NC(=O)CCCC(=O)NCCCC[C@@H](NC(=O)[C@@H](Cc1ccc2ccccc2c1)NC(=O)[C@@H](Cc1ccc(O)cc1)NC(=O)CCC(C(=O)O)N1CCN(CC(=O)O)CCN(CC(=O)O)CCN(CC(=O)O)CC1)C(=O)O)C(=O)O)C(=O)O (stereo partly drawn) [[^nat/177Lu]PSMA-10, DOTAGA-y-nal-k(Glut-(l-f)-KuE), metal not drawn, reference compound] | 6.1 ± 1.6 | 118.6 ± 0.5 |  |  |
